Laboratory results taken from US9316633B2, “Methods for identifying inhibitors of solute transporters” (The Regents of the University of California, priority 2006, dated 2016).

Legend:
[1] = target: T1, rat UT-A1 (Rattus norvegicus, UniProt Q62668); assay: UT-A1-mediated urea flux across stably transfected MDCK cell layers; type: cell-based; settings: 10 μM forskolin; 0.7 mM phloretin
T1 construct: expressed in transfected cells
T1 sequence (Q62668 1-929): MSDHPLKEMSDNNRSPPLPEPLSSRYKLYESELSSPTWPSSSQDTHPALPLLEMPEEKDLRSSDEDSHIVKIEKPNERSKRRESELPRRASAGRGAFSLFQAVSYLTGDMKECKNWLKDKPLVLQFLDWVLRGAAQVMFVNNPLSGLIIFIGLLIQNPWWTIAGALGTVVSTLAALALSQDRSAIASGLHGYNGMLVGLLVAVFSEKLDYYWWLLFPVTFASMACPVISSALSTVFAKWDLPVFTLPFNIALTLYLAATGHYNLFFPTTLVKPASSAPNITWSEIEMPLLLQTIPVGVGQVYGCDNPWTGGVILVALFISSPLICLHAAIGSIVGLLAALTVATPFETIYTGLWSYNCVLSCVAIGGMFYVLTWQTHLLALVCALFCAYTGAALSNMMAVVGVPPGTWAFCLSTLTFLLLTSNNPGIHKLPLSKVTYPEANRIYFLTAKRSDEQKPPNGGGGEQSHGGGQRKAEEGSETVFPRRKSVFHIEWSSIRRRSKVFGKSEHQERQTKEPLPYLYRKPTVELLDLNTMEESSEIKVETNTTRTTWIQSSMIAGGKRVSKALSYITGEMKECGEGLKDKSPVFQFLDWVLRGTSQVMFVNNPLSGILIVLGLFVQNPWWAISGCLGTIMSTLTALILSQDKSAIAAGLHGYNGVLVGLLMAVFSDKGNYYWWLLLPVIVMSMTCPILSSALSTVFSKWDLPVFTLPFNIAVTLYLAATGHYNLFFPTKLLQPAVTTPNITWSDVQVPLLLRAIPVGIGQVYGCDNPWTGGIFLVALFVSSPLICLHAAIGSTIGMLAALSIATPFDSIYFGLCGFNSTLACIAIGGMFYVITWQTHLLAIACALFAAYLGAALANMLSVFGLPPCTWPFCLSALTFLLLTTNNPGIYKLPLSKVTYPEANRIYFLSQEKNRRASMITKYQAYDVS
Procedure: Concentration-inhibition studies were performed to study the effect of the active mouse UT-B inhibitors on urea transport by UT-A. The amino acid sequences of UT-B and UT-A urea transporter isoforms share significant similarity. The cells used in these studies were MDCK cells that expressed rat UT-A1. MDCK-UT-A1-expressing cells were grown on collagen-coated porous filters until they were electrically tight, at which point 15 mM urea was introduced into buffer bathing the basolateral cell surface. […]
UT-A1-facilitated urea flux in the basolateral-to-apical direction across unstimulated and forskolin-stimulated MDCK-UT-A1 cell layers was measured in response to a 15-mM urea gradient. […] Five μL samples of apical fluid were collected at specified times during incubation at 37° C., and urea concentration was determined using a commercial kit based on chromogenic urea complexation at 520-nm wavelength (Quantichrom™ Urea Assay Kit, BioAssay Systems, Hayward, Calif.). […] Aforsk, and Aphlor were averaged absorbance values (at 520 nm) for cultures treated with forskolin and forskolin+phloretin, respectively, and Atest were values from cultures treated with forskolin+ test compound.

[2] = target: T2, UT-B (Homo sapiens, UniProt Q13336); assay: RBC lysis assay, human RBCs loaded with acetamide; type: cell-based; settings: 0.7 mM phloretin; control approximately 1.6 M
T2 construct: the indicator cells are red blood cells that endogenously express the UT-B urea transporter; endogenous in cells; host or cells: human red blood cells (whole venous blood, single donor)
T2 sequence (Q13336 1-389): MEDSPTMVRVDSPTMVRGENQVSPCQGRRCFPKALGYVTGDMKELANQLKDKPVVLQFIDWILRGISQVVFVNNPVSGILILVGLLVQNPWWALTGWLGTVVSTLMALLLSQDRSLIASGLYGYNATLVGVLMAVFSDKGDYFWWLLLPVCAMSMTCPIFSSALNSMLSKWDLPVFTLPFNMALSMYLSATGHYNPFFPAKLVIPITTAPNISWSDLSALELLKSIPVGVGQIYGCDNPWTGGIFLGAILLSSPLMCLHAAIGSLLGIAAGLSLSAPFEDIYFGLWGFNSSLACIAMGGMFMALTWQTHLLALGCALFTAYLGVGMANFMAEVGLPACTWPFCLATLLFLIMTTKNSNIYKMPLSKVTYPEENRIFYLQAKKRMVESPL

[3] = system: urea transporter (UT); settings: previously available UT inhibitors; cited from earlier work
[4] = system: RBCs from wild-type mice; assay: Osmotic water permeability by stopped-flow light scattering, RBCs from wild-type mice; type: cell-based, mouse
Procedure: RBC urea and water permeabilities were assayed by stopped-flow light scattering using a Hi-Tech Sf-51 instrument (Wiltshire, UK). For measurement of urea permeability, dilutions of whole blood (human or mouse; see Example 1) in PBS (hematocrit: approximately 0.5%) were incubated with test compounds for 5 min and then subjected to a 250-mM inwardly directed gradient of urea. After an initial osmotic shrinking phase, the kinetics of increasing cell volume caused by urea influx were measured as the time-course of 90° scattered light intensity at 530 nm, with increasing cell volume resulting in reduced scattered light intensity. As a positive control, 0.7 mM phloretin was added to the RBC suspension prior to stopped-flow experiments. Measurements of water permeability were carried out similarly, with sucrose (cell-impermeant) used instead of urea to establish a 250-mM osmotic gradient. As a positive control, HgCl2 (0.3 mM) was added to the RBC suspension prior to stopped-flow measurements. Osmotic water permeability coefficients (Pf) were computed from light scattering data as described (van Hoek et al., J. Biol. Chem. 267:18267-69 (1992)).
This example describes chemical knock-out of UT-B by UT-B inhibitors in RBCs and the effect on UT-B-facilitated water transport. […] Osmotic water permeability was measured by stopped-flow light scattering in RBCs from wild-type and AQP1-null mice as shown in FIG. 8A. […] AQP1-null RBCs had greater than 5-fold reduced Pf compared to wild-type RBCs.

For O=C(CCc1ccc(O)cc1)c1c(O)cc(O)cc1O [phloretin, reference compound], the “effect on UT-A1-facilitated urea transport” value [1] is given as “inhibited”, the “acetamide concentration at fifty percent lysis” value [2] is given as “approximately 1.1 M” and the “concentration exhibiting activity as UT inhibitor” value [3] is given as over 0.5 mM. The “effect on water transport” value [4] was “little effect” and the “change in Pf” value ([4]; 0.7 mM) was “small but significant reduction”.
